Source: ChEMBL document CHEMBL1201861, “Genomics of Drug Sensitity in Cancer screening data, Wellcome Trust Sanger Institute”

Columns and labels:
Assay in all cases: cells
HT1197 = assay type: functional, cell-based, Homo sapiens, HT-1197; details: Homo sapiens, HT1197
Description: SANGER: Inhibition of human HT-1197 cell growth in a cell viability assay.

NCI-H520 = assay type: functional, cell-based, Homo sapiens; details: Homo sapiens, NCI-H520;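 further: growth inhibition of NCI-H520 cells, measured by a cell viability assay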
Description: SANGER: Inhibition of human NCI-H520 cell growth in a cell viability assay.

GP5d = assay type: functional, cell-based, Homo sapiens; details: Homo sapiens, GP5d;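 further: growth inhibition of human GP5d cells, read out with a cell viability assay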
Description: SANGER: Inhibition of human GP5d cell growth in a cell viability assay.

SK-NEP-1 = assay type: functional, cell-based; details: Homo sapiens;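 further: growth inhibition of human SK-NEP-1 cells, read out by a cell viability assay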
Description: SANGER: Inhibition of human SK-NEP-1 cell growth in a cell viability assay.

SW756 = assay type: functional, cell-based, Homo sapiens; details: Homo sapiens, SW756;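 further: growth inhibition of human SW756 cells, read out with a cell viability assay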
Description: SANGER: Inhibition of human SW756 cell growth in a cell viability assay.

DOHH-2 = assay type: functional, cell-based; details: Homo sapiens;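 further: growth inhibition of human DOHH-2 cells, read out with a cell viability assay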
Description: SANGER: Inhibition of human DOHH-2 cell growth in a cell viability assay.

OVCAR-4 = assay type: functional, cell-based, Homo sapiens; details: Homo sapiens, OVCAR-4;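 further: growth inhibition of human OVCAR-4 cells, measured with a cell viability assay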
Description: SANGER: Inhibition of human OVCAR-4 cell growth in a cell viability assay.

MHH-ES-1 = assay type: functional, cell-based, Homo sapiens; details: Homo sapiens, MHH-ES-1;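 further: cell growth inhibition measured by a cell viability assay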
Description: SANGER: Inhibition of human MHH-ES-1 cell growth in a cell viability assay.

Calu-3 = assay type: functional, cell-based, Homo sapiens; details: Homo sapiens, Calu-3;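 further: growth inhibition of human Calu-3 cells, determined with a cell viability assay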
Description: SANGER: Inhibition of human Calu-3 cell growth in a cell viability assay.

KYSE-450 = assay type: functional, cell-based; details: Homo sapiens;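 further: cell growth inhibition measured by a viability assay in human KYSE-450 cells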
Description: SANGER: Inhibition of human KYSE-450 cell growth in a cell viability assay.

Ramos-2G6-4C10 = assay type: functional, cell-based; details: Homo sapiens;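 further: growth inhibition of the cell line, measured by a cell viability read-out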
Description: SANGER: Inhibition of human Ramos-2G6-4C10 cell growth in a cell viability assay.

KP-4 = assay type: functional, cell-based, Homo sapiens; details: Homo sapiens, KP-4; read-out: IC50;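 further: human KP-4 cells, with growth inhibition read out through a cell viability assay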
Description: SANGER: Inhibition of human KP-4 cell growth in a cell viability assay.

LK-2 = assay type: functional, cell-based, Homo sapiens; details: Homo sapiens, LK-2;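 further: growth inhibition of LK-2 cells, read out with a viability assay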
Description: SANGER: Inhibition of human LK-2 cell growth in a cell viability assay.

KNS-42 = assay type: functional, cell-based, Homo sapiens; details: Homo sapiens, KNS-42;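 further: growth inhibition of KNS-42 cells, read out with a cell viability assay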
Description: SANGER: Inhibition of human KNS-42 cell growth in a cell viability assay.

C-33-A = assay type: functional, cell-based, Homo sapiens; details: Homo sapiens, C-33-A;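 further: cell viability assay measuring growth inhibition of C-33-A cells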
Description: SANGER: Inhibition of human C-33-A cell growth in a cell viability assay.

SKG-IIIa = assay type: functional, cell-based, Homo sapiens; details: Homo sapiens, SKG-IIIa;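 further: cell growth inhibition, read out with a cell viability assay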
Description: SANGER: Inhibition of human SKG-IIIa cell growth in a cell viability assay.

PC-14 = assay type: functional, cell-based, Homo sapiens; details: Homo sapiens, PC-14;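 further: cell viability assay measuring inhibition of PC-14 cell growth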
Description: SANGER: Inhibition of human PC-14 cell growth in a cell viability assay.

A2780 = assay type: functional, cell-based, Homo sapiens; details: Homo sapiens, A2780;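 further: growth inhibition of A2780 cells, read out with a cell viability assay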
Description: SANGER: Inhibition of human A2780 cell growth in a cell viability assay.

A101D = assay type: functional, cell-based, Homo sapiens; details: Homo sapiens, A101D;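 further: growth inhibition of the cell line, measured with a viability assay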
Description: SANGER: Inhibition of human A101D cell growth in a cell viability assay.

HMV-2 cell line = assay type: functional, cell-based, Homo sapiens; details: Homo sapiens, HMV-2;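 further: growth inhibition of HMV-II cells, read out with a cell viability assay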
Description: SANGER: Inhibition of human HMV-II cell growth in a cell viability assay.

BE-13 = assay type: functional, cell-based; details: Homo sapiens;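 further: growth inhibition of human BE-13 cells, measured with a cell viability assay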
Description: SANGER: Inhibition of human BE-13 cell growth in a cell viability assay.

HCC1569 = assay type: functional, cell-based, Homo sapiens; details: Homo sapiens, HCC1569;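 further: growth inhibition of human HCC1569 cells, read out with a cell viability assay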
Description: SANGER: Inhibition of human HCC1569 cell growth in a cell viability assay.

HL-60 = assay type: functional, cell-based; details: Homo sapiens;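 further: growth inhibition of human HL-60 cells, read out with a cell viability assay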
Description: SANGER: Inhibition of human HL-60 cell growth in a cell viability assay.

KP-N-YN = assay type: functional, cell-based; details: Homo sapiens;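 further: growth inhibition of KP-N-YN cells, read out with a cell viability assay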
Description: SANGER: Inhibition of human KP-N-YN cell growth in a cell viability assay.

LCLC-103H cell line = assay type: functional, cell-based, Homo sapiens; details: Homo sapiens, LCLC-103H
Description: SANGER: Inhibition of human LCLC-103H cell growth in a cell viability assay.

U-251 = assay type: functional, cell-based, Homo sapiens; details: Homo sapiens, U-251;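 further: growth inhibition of human U-251 cells, read out through a cell viability assay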
Description: SANGER: Inhibition of human U251 cell growth in a cell viability assay.

LS-1034 = assay type: functional, cell-based, Homo sapiens; details: Homo sapiens, LS-1034
Description: SANGER: Inhibition of human LS-1034 cell growth in a cell viability assay.

SK-UT-1 = assay type: functional, cell-based, Homo sapiens; details: Homo sapiens, SK-UT-1;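 further: growth inhibition of SK-UT-1 cells, measured by a cell viability assay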
Description: SANGER: Inhibition of human SK-UT-1 cell growth in a cell viability assay.

NCI-H1838 = assay type: functional, cell-based, Homo sapiens; details: Homo sapiens, NCI-H1838;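 further: growth inhibition of NCI-H1838 cells, determined with a cell viability readout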
Description: SANGER: Inhibition of human NCI-H1838 cell growth in a cell viability assay.

OMC-1 = assay type: functional, cell-based, Homo sapiens; details: Homo sapiens, OMC-1;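 further: growth inhibition of the OMC-1 cell line, measured by a cell viability assay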
Description: SANGER: Inhibition of human OMC-1 cell growth in a cell viability assay.

T-24 = assay type: functional, cell-based, Homo sapiens; details: Homo sapiens, T-24;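 further: growth inhibition of T-24 cells, read out with a cell viability assay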
Description: SANGER: Inhibition of human T-24 cell growth in a cell viability assay.

H4 = assay type: functional, cell-based; details: Homo sapiens
Description: SANGER: Inhibition of human H4 cell growth in a cell viability assay.

A-427 = assay type: functional, cell-based, Homo sapiens; details: Homo sapiens, A-427;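 further: growth inhibition of human A-427 cells, read out by a cell viability assay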
Description: SANGER: Inhibition of human A427 cell growth in a cell viability assay.

HOP-62 = assay type: functional, cell-based, Homo sapiens; details: Homo sapiens, HOP-62;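 further: cell growth inhibition determined with a viability assay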
Description: SANGER: Inhibition of human HOP-62 cell growth in a cell viability assay.

NCI-H1755 = assay type: functional, cell-based, Homo sapiens; details: Homo sapiens, NCI-H1755;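 further: cell viability readout used to measure growth inhibition of NCI-H1755 cells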
Description: SANGER: Inhibition of human NCI-H1755 cell growth in a cell viability assay.

MeWo = assay type: functional, cell-based, Homo sapiens; details: Homo sapiens, MeWo;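 further: growth inhibition of MeWo cells, determined by a cell viability readout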
Description: SANGER: Inhibition of human Mewo cell growth in a cell viability assay.

ChaGo-K-1 = assay type: functional, cell-based; details: Homo sapiens;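 further: growth inhibition of ChaGo-K-1 cells, read out with a cell viability assay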
Description: SANGER: Inhibition of human ChaGo-K-1 cell growth in a cell viability assay.

SCC-4 = assay type: functional, cell-based, Homo sapiens; details: Homo sapiens, SCC-4;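 further: growth inhibition of human SCC-4 cells, read out as cell viability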
Description: SANGER: Inhibition of human SCC-4 cell growth in a cell viability assay.

SCC-9 = assay type: functional, cell-based, Homo sapiens; details: Homo sapiens, SCC-9;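 further: Read-out is a cell viability assay, with values giving inhibition of cell growth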
Description: SANGER: Inhibition of human SCC-9 cell growth in a cell viability assay.

BXPC-3 = assay type: functional, cell-based, Homo sapiens; details: Homo sapiens, BXPC-3;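 further: growth inhibition of human BxPC-3 cells, read out by a cell viability assay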
Description: SANGER: Inhibition of human BxPC-3 cell growth in a cell viability assay.

CaR-1 = assay type: functional, cell-based, Homo sapiens; details: Homo sapiens, CaR-1;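 further: growth inhibition of human CaR-1 cancer cells, read out with a cell viability assay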
Description: SANGER: Inhibition of human CaR-1 cell growth in a cell viability assay.

SK-MES-1 = assay type: functional, cell-based, Homo sapiens; details: Homo sapiens, SK-MES-1;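 further: growth inhibition of human SK-MES-1 cells, read out with a cell viability assay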
Description: SANGER: Inhibition of human SK-MES-1 cell growth in a cell viability assay.

SW1710 = assay type: functional, cell-based, Homo sapiens; details: Homo sapiens, SW1710;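 further: growth inhibition of SW1710 cells, determined with a cell viability assay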
Description: SANGER: Inhibition of human SW1710 cell growth in a cell viability assay.

HCC1419 = assay type: functional, cell-based, Homo sapiens; details: Homo sapiens, HCC1419;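 further: growth inhibition of human HCC1419 cells, read out as cell viability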
Description: SANGER: Inhibition of human HCC1419 cell growth in a cell viability assay.

HCC1806 = assay type: functional, cell-based, Homo sapiens; details: Homo sapiens, HCC1806;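 further: growth inhibition of the cancer cell line, determined with a cell viability assay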
Description: SANGER: Inhibition of human HCC1806 cell growth in a cell viability assay.

ES3 = assay type: functional, cell-based, Homo sapiens; details: Homo sapiens, ES3;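 further: growth inhibition of ES3 cells, read out with a cell viability assay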
Description: SANGER: Inhibition of human ES3 cell growth in a cell viability assay.

BT-474 = assay type: functional, cell-based, Homo sapiens; details: Homo sapiens, BT-474
Description: SANGER: Inhibition of human BT-474 cell growth in a cell viability assay.

UMC-11 = assay type: functional, cell-based, Homo sapiens; details: Homo sapiens, UMC-11;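 further: growth inhibition of UMC-11 cells, read out with a cell viability assay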
Description: SANGER: Inhibition of human UMC-11 cell growth in a cell viability assay.

U-266 = assay type: functional, cell-based; details: Homo sapiens
Description: SANGER: Inhibition of human U-266 cell growth in a cell viability assay.

NB10 = assay type: functional, cell-based, Homo sapiens; details: Homo sapiens, NB10;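 further: growth inhibition of NB10 cells, read out by a cell viability assay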
Description: SANGER: Inhibition of human NB10 cell growth in a cell viability assay.

CWR22R = assay type: functional, cell-based, Homo sapiens; details: Homo sapiens, 22Rv1;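 further: growth inhibition of 22Rv1 cells, read out with a cell viability assay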
Description: SANGER: Inhibition of human 22RV1 cell growth in a cell viability assay.

Measured: IC50

CCOc1nc(NC(=O)Cc2cc(OC)ccc2OC)cc(N)c1C#N
> 10 µM: all assays above

CC(=O)O[C@@H]1[C@@H](OC(C)=O)[C@@H](O)[C@H](Oc2c(-c3ccc(O)cc3)oc3cc(O)cc(O)c3c2=O)O[C@H]1C
not listed: OMC-1
> 10 µM: all other assays above
